# In patent publication US8124637B2, “Anthra [1, 2-d]imidazole-6,11-dione derivatives, preparation method and application thereof” (National Defense Medical Center, priority 2010, dated 2012):
# Tests used:
# [1] = NCI 60-cell drug screen, one dose; format: cell-based, human; details: Renal Cancer A489, 1.00E−5 Molar
# Procedure: (§1) In brief, cellular protein levels were determined after 48 hours of drug exposure by sulforhodamine B colorimetry.
# (§2) The screening system in United State National Cancer Institute (NCI) consists of 60 kinds of different human cancer cells, which can be used to assay the growth-inhibiting ability or cell toxicity of a compound against various cancer and tumor at a certain concentration. The NCI had selected 6 compounds synthesized above, and performed cell toxicity assay against 60 kinds of cancer cell strains (Table 2) (DTP Human Tumor Cell Line Screen), in which each compound was assayed at a certain concentration to observe its inhibition ability or cell toxicity against various kinds of cancer and tumor.
# 786-0 = assay: NCI 60-cell drug screen, one dose; format: cell-based, human; details: Renal Cancer 786-0, 1.00E−5 Molar
# Procedure: as §1, §2
# CCRF-CEM = assay: NCI 60-cell drug screen, one dose; format: cell-based, human; details: Leukemia CCRF-CEM, 1.00E−5 Molar
# Procedure: as §1, §2
# COLO 205 = assay: NCI 60-cell drug screen, one dose; format: cell-based, human; details: Colon Cancer COLO 205, 1.00E−5 Molar
# Procedure: as §1, §2
# HCC-2998 = assay: NCI 60-cell drug screen, one dose; format: cell-based, human; details: Colon Cancer HCC-2998, 1.00E−5 Molar
# Procedure: as §1, §2
# HL-60(TB) = assay: NCI 60-cell drug screen, one dose; format: cell-based, human; details: Leukemia HL-60(TB), 1.00E−5 Molar
# Procedure: as §1, §2
# HT29 = assay: NCI 60-cell drug screen, one dose; format: cell-based, human; details: Colon Cancer HT29, 1.00E−5 Molar
# Procedure: as §1, §2
# IGROV1 = assay: NCI 60-cell drug screen, one dose; format: cell-based, human; details: Ovarian Cancer IGROV1, 1.00E−5 Molar
# Procedure: as §1, §2
# M14 = assay: NCI 60-cell drug screen, one dose; format: cell-based, human; details: Melanoma M14, 1.00E−5 Molar
# Procedure: as §1, §2
# MALME-3M = assay: NCI 60-cell drug screen, one dose; format: cell-based, human; details: Melanoma MALME-3M, 1.00E−5 Molar
# Procedure: as §1, §2
# MDA-MB-231/ATCC = assay: NCI 60-cell drug screen, one dose; format: cell-based, human; details: Breast Cancer MDA-MB-231/ATCC, 1.00E−5 Molar
# Procedure: as §1, §2
# NCI-H226 = assay: NCI 60-cell drug screen, one dose; format: cell-based, human; details: Non-Small Cell Lung Cancer NCI-H226, 1.00E−5 Molar
# Procedure: as §1, §2
# NCI-H322M = assay: NCI 60-cell drug screen, one dose; format: cell-based, human; details: Non-Small Cell Lung Cancer NCI-H322M, 1.00E−5 Molar
# Procedure: as §1, §2
# NCI-H460 = assay: NCI 60-cell drug screen, one dose; format: cell-based, human; details: Non-Small Cell Lung Cancer NCI-H460, 1.00E−5 Molar
# Procedure: as §1, §2
# NCI/ADR-RES = assay: NCI 60-cell drug screen, one dose; format: cell-based, human; details: Ovarian Cancer NCI/ADR-RES, 1.00E−5 Molar
# Procedure: as §1, §2
# OVCAR-3 = assay: NCI 60-cell drug screen, one dose; format: cell-based, human; details: Ovarian Cancer OVCAR-3, 1.00E−5 Molar
# Procedure: as §1, §2
# SF-295 = assay: NCI 60-cell drug screen, one dose; format: cell-based, human; details: CNS Cancer SF-295, 1.00E−5 Molar
# Procedure: as §1, §2
# SK-MEL-2 = assay: NCI 60-cell drug screen, one dose; format: cell-based, human; details: Melanoma SK-MEL-2, 1.00E−5 Molar
# Procedure: as §1, §2
# SN12C = assay: NCI 60-cell drug screen, one dose; format: cell-based, human; details: Renal Cancer SN12C, 1.00E−5 Molar
# Procedure: as §1, §2
# SNB-75 = assay: NCI 60-cell drug screen, one dose; format: cell-based, human; details: CNS Cancer SNB-75, 1.00E−5 Molar
# Procedure: as §1, §2
# SR = assay: NCI 60-cell drug screen, one dose; format: cell-based, human; details: Leukemia SR, 1.00E−5 Molar
# Procedure: as §1, §2
# T-47D = assay: NCI 60-cell drug screen, one dose; format: cell-based, human; details: Breast Cancer T-47D, 1.00E−5 Molar
# Procedure: as §1, §2
# TK-10 = assay: NCI 60-cell drug screen, one dose; format: cell-based, human; details: Renal Cancer TK-10, 1.00E−5 Molar
# Procedure: as §1, §2
# U251 = assay: NCI 60-cell drug screen, one dose; format: cell-based, human; details: CNS Cancer U251, 1.00E−5 Molar
# Procedure: as §1, §2
# UACC-62 = assay: NCI 60-cell drug screen, one dose; format: cell-based, human; details: Melanoma UACC-62, 1.00E−5 Molar
# Procedure: as §1, §2
# UO-31 = assay: NCI 60-cell drug screen, one dose; format: cell-based, human; details: Renal Cancer UO-31, 1.00E−5 Molar
# Procedure: as §1, §2
# [2] = MTT assay (relative cell survival), H1299; details: human, H1299 non-small cell lung cancer cells (PhTERT-SEAP), Relative MTT viability (%)
# Procedure: (§3) Further, cells were subjected to MTT assay to compare the relative toxicity or effect of each compound on cell proliferation and activity.
# (§4) The above-described cells are cultured in a 96-well plate, to which was added with 25 μl MTT solution, and cultured in a 37° C. carbon dioxide incubator for 4 hours. Then, 100 μl Lysis buffer is added and incubated in a 37° C. carbon dioxide incubator overnight. An ELISA reader (Bio-Rad Model 450) is used to read optical density (O.D.) at 550 nm.
# (§5) After being subjected to different compound treatments for 72 hours, cells were treated with a fixed amount of MTT solution for 28 hours. Then, DMSO was used to dissolve back formazan, an O. D. value was detected at wavelength in the range of 550/670 nm, and calculated accordingly the cell survival rate (as shown in Table 1).
# A549/ATCC = assay: NCI 60-cell drug screen, one dose; format: cell-based, human; details: Non-Small Cell Lung Cancer A549/ATCC, 1.00E−5 Molar
# Procedure: as §1, §2
# MOLT-4 = assay: NCI 60-cell drug screen, one dose; format: cell-based, human; details: Leukemia MOLT-4, 1.00E−5 Molar
# Procedure: as §1, §2
# OVCAR-8 = assay: NCI 60-cell drug screen, one dose; format: cell-based, human; details: Ovarian Cancer OVCAR-8, 1.00E−5 Molar
# Procedure: as §1, §2
# PC-3 = assay: NCI 60-cell drug screen, one dose; format: cell-based, human; details: Prostate Cancer PC-3, 1.00E−5 Molar
# Procedure: as §1, §2
# in vitro = details: human, Relative MTT viability (%)
# Procedure: as §3, §4, §5
SMILES,Growth Percent [1] [%],Growth Percent (786-0) [%],Growth Percent (CCRF-CEM) [%],Growth Percent (COLO 205) [%],Growth Percent (HL-60(TB)) [%],Growth Percent (HT29) [%],Growth Percent (IGROV1) [%],Growth Percent (M14) [%],Growth Percent (MALME-3M) [%],Growth Percent (MDA-MB-231/ATCC) [%],Growth Percent (NCI-H226) [%],Growth Percent (NCI-H322M) [%],Growth Percent (NCI-H460) [%],Growth Percent (OVCAR-3) [%],Growth Percent (SK-MEL-2) [%],Growth Percent (SN12C) [%],Growth Percent (SNB-75) [%],Growth Percent (SR) [%],Growth Percent (T-47D) [%],Growth Percent (TK-10) [%],further results
"CCN(CC)Cc1nc2ccc3c(c2[nH]1)C(=O)c1ccccc1C3=O [CL04, 2-((diethylamino)methyl)-1H-anthra[1,2-d]imidazole-6,11-dione]",49.50,64.88,47.88,81.00,68.18,56.02,13.61,97.86,98.45,75.52,77.20,90.06,55.50,63.32,102.69,69.04,82.03,42.38,83.55,98.12,"Growth Percent (HCC-2998): 80.61%; Growth Percent (NCI/ADR-RES): 65.32%; Growth Percent (SF-295): 89.56%; Growth Percent (U251): 70.77%; Growth Percent (UACC-62): 68.47%; Growth Percent (UO-31): 27.21%; viability at 72 h, 1 µM [2]: 101 ± 6.67%; viability at 72 h, 10 µM [2]: > 50%"
"CN(CCc1ccccn1)Cc1nc2ccc3c(c2[nH]1)C(=O)c1ccccc1C3=O [CL07, 2-((N-methyl-2-(pyridin-2-yl)ethanamino)methyl)-1H-anthra[1,2-d]imidazole-6,11-dione]",69.60,89.74,39.91,117.88,120.08,84.18,54.26,106.97,107.00,88.98,81.36,102.29,90.27,83.57,95.03,91.19,81.62,70.10,68.45,130.74,"Growth Percent (A549/ATCC): 106.30%; Growth Percent (HCC-2998): 95.82%; Growth Percent (MOLT-4): 47.54%; Growth Percent (NCI/ADR-RES): 86.11%; Growth Percent (OVCAR-8): 80.59%; Growth Percent (PC-3): 99.83%; Growth Percent (SF-295): 105.86%; Growth Percent (U251): 81.83%; Growth Percent (UACC-62): 89.67%; Growth Percent (UO-31): 49.49%; viability at 72 h, 1 µM [2]: 104.3 ± 0.96%"
"O=C1c2ccccc2C(=O)c2c1ccc1nc(CN3CCCCC3)[nH]c21 [CL16, 2-((piperidin-1-yl)methyl)-1H-anthra[1,2-d]imidazole-6,11-dione]",61.84,62.88,102.47,74.65,56.89,61.38,54.22,100.82,119.68,77.93,78.85,92.47,64.61,66.26,113.29,96.96,86.42,57.64,69.11,115.68,"Growth Percent (HCC-2998): 82.81%; Growth Percent (MOLT-4): 22.77%; Growth Percent (NCI/ADR-RES): 73.52%; Growth Percent (PC-3): 81.94%; Growth Percent (U251): 72.67%; Growth Percent (UACC-62): 74.61%; Growth Percent (UO-31): 42.93%; viability at 72 h, 1 µM [2]: 111 ± 8.66%; viability at 72 h, 100 µM ([2]; 100 μM): 19.6%"
"CN1CCN(Cc2nc3ccc4c(c3[nH]2)C(=O)c2ccccc2C4=O)CC1 [CL24, 2-((4-methylpiperazin-1-yl)methyl)-1H-anthra[1,2-d]imidazole-6,11-dione]",69.36,59.13,34.45,53.66,65.29,22.64,12.05,97.20,89.63,61.66,64.48,82.41,57.35,52.79,107.95,48.50,69.87,21.48,97.08,73.05,"Growth Percent (HCC-2998): 61.90%; Growth Percent (SF-295): 81.61%; Growth Percent (U251): 65.41%; Growth Percent (UACC-62): 81.12%; Growth Percent (UO-31): 22.93%; viability at 72 h, 1 µM [2]: 87.4 ± 5.52%; viability at 72 h, 10 µM [2]: < 50%"
"O=C1c2ccccc2C(=O)c2c1ccc1nc(CN3CCN(c4ccccc4)CC3)[nH]c21 [CL27, 2-((4-phenylpiperazin-1-yl)methyl)-1H-anthra[1,2-d]imidazole-6,11-dione]",75.09,88.48,74.42,128.37,107.54,87.57,69.25,106.33,119.09,90.47,82.98,91.96,94.45,76.56,101.39,89.91,70.93,43.11,66.35,118.37,"Growth Percent (A549/ATCC): 111.76%; Growth Percent (MOLT-4): 55.21%; Growth Percent (NCI/ADR-RES): 80.36%; Growth Percent (OVCAR-8): 80.89%; Growth Percent (PC-3): 77.91%; Growth Percent (SF-295): 105.37%; Growth Percent (U251): 84.83%; Growth Percent (UACC-62): 93.36%; Growth Percent (UO-31): 58.33%; viability at 72 h, 1 µM (in vitro): 90.2 ± 3.86%; viability at 72 h, 10 µM (in vitro): 54.4%; viability at 72 h, 100 µM (in vitro): 18.1%"
